Source: US11242334B2, “Heterocyclic compounds as kinase inhibitors, compositions comprising the heterocyclic compound, and methods of use thereof” (JS INNOPHARM (SHANGHAI) LTD, priority 2017, dated 2022)

Assays:
[1] = test system: Colo205 cell line; test: Colo205 cell proliferation assay (MTT assay, WST-8 readout); format: cell-based; conditions: Homo sapiens; IC50 values of growth inhibition in Colo 205 cells; 72 hours
Procedure: Compounds disclosed herein were tested for the inhibition of ERK2 by a Colo205 cell proliferation assay commonly known as MTT assay. In this assay, a complete media was prepared by adding 10% fetal bovine serum to RPMI-1640 medium (Life technology). Colon cancer cells (Colo205 cell line) were added to each of 88 wells of a 96 well plate at a seeding density of 5,000 cells/well/90 μL. The cells were allowed to attach to the plate by incubating at 37° C. for 24 hours. The compound was dissolved in DMSO (SIGMA). A solution of test compound was prepared in complete media by serial dilution to obtain the following concentrations: 500 μM, 150 μM, 50 μM, 15 μM, 5 μM, 1.5 μM, 0.5 μM, 0.15 μM and 0.05 μM. The test compound solution (10 μL) was added to each of 80 cell-containing wells. The final concentrations of the compound were following: 50 μM, 15 μM, 5 μM, 1.5 μM, 0.5 μM, 0.15 μM, 0.05 μM, 0.015 μM and 0.005 μM. The final concentration of DMSO is 0.5%. To the 8 remaining cell-containing wells, only complete media (containing 0.5% DMSO) was added to form a control group in order to measure maximal proliferation. To the remaining 8 empty wells, complete media was added to for a vehicle control group in order to measure background. The plates were incubated at 37° C. for 72 hours. 10 μL WST-8 solution (DOJINDO, Cell Counting KIT-8) was added to each well. The plates were further incubated at 37° C. for 2 hours, and then read for the absorbance using a microplate reader at 450 nm.
The IC50 values of growth inhibition in Colo 205 cells for Compounds disclosed are listed in Table 3, A′: ≤0.5 μM; B′: >0.5 μM and ≤1 μM; C′: >1.0 μM and ≤5 uM; D′: >5 μM.

[2] = target: T1, human ERK2 (Homo sapiens, UniProt P28482); test: LanthaScreen TR-FRET enzymatic assay, ERK2; conditions: IC50 values of ERK2 biochemical activity; 5 μM ATP, 400 nM ATF2-GFP substrate
T1 construct: recombinantly expressed as GST-tagged full-length protein purified from E. coli; GST; purchased Invitrogen PV3311; host or cells: E. coli
Procedure: Compounds were tested in a LanthaScreen™ time-resolved fluorescence energy transfer (TR-FRET) enzymatic assay from Invitrogen. The assay used human ERK2 (Mitogen Activated Kinase 1, Invitrogen, Cat. PV3311) recombinantly expressed as GST-tagged full-length protein purified from E. coli and activated in vitro with MAP2K1. The substrate was a recombinant truncated version (residues 19-96) of ATF2 fused with Green Fluorescent Protein (Invitrogen, Cat. PV4445). Test compounds were prepared and diluted in DMSO in 3-fold serial dilutions to 100× of the final testing concentrations. The compounds were then further diluted to 4× by the kinase reaction buffer (Invitrogen, Cat. PV3189). The enzymatic reaction for compound testing was performed in a white 384-well polypropylene plate (Packard, Cat. 6005214) with a total reaction volume of 10 μl containing 20 ng/ml ERK2, 400 nM substrate, and 5 μM ATP that is around its Km. The assay started with loading 2.5 μl of ERK2 diluted in kinase reaction buffer to wells, followed by addition of equal volume of 4× compounds for 15-min incubation at the room temperature for pre-treatment. The enzymatic reaction was initiated by addition of 5 μl of mixture of the substrate and ATP prepared in kinase reaction buffer. After one hour reaction, 10 μl mixture of EDTA (final 10 mM) and terbium-labeled anti-pATF2 (pThr71) antibody (final 2 nM) (Invitrogen, Cat. PV4451) prepared in TR-FRET antibody dilution buffer (Invitrogen, Cat. PV3574) was added to stop the enzymatic reaction and produce TR-FRET signals. After 30 minutes of incubation at room temperature, the plate was read in Tecan Infinite F200 Pro with the following settings: Excitation 340 nm (30)/Emission1 495 nm (10)/Emission2 520 nm (25). The TR-FRET values were dimensionless numbers that were calculated as the ratio of the acceptor ([…]) signal to the donor (Terbium) signal. Percent of control was calculated as the percentage of compound-treated vs 1% DMSO vehicle-treated. The dose-response curves were generated and the ICsos were calculated by nonlinear sigmoid curve fitting using GraphPad Prism.
The IC50 values of ERK2 biochemical activity for the examples disclosed herein are listed in Table 3, A: ≤10 nM; B: >10 nM and ≤50 nM; C: >50 nM and ≤100 nM; D.>100 nM.

T1 sequence (P28482 whole entry): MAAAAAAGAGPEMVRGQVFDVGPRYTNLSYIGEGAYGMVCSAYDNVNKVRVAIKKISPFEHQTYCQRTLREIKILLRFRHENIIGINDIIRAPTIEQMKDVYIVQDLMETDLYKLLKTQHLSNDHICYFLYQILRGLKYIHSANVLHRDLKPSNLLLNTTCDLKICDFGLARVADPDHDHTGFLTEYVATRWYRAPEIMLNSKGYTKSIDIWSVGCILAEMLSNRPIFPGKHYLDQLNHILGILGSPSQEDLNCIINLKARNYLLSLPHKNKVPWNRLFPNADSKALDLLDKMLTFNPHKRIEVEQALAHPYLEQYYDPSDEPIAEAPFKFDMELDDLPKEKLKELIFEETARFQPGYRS

Row | IC50 [1] | IC50 [2] | Compound
1 | 500 to 1000 nM | < 10 nM | O=c1cc(-c2ccc3[nH]nc(C4CCOCC4)c3c2)ccn1[C@H](CO)c1cccc(Cl)c1 [Example 2, (S)-1-(1-(3-chlorophenyl)-2-hydroxyethyl)-4-(3-(tetrahydro-2H-pyran-4-yl)-1H-indazol-5-yl)pyridin-2(1H)-one]
2 | 1000 to 5000 nM | 10 to 50 nM | Cc1n[nH]c2ccc(-c3ccn([C@H](CO)c4cccc(Cl)c4)c(=O)c3)cc12 [Example 3, (S)-1-(1-(3-chlorophenyl)-2-hydroxyethyl)-4-(3-methyl-1H-indazol-5-yl)pyridin-2(1H)-one]
3 | 500 to 1000 nM | < 10 nM | Cc1cc(-c2n[nH]c3ncc(-c4ccn([C@H](CO)c5cccc(Cl)c5)c(=O)c4)cc23)ccn1 [Example 4, (S)-1-(1-(3-chlorophenyl)-2-hydroxyethyl)-4-(3-(2-methylpyridin-4-yl)-1H-pyrazolo[3,4-b]pyridin-5-yl)pyridin-2(1H)-one]
4 | 1000 to 5000 nM | 10 to 50 nM | CNc1n[nH]c2ccc(-c3ccn([C@H](CO)c4cccc(Cl)c4)c(=O)c3)cc12 [Example 5, (S)-1-(1-(3-chlorophenyl)-2-hydroxyethyl)-4-(3-(methyl-amino)-1H-indazol-5-yl)pyridin-2(1H)-one]
5 | ≤ 500 nM | < 10 nM | Cc1cc(-c2n[nH]c3ccc(-c4ccn([C@H](CO)c5cccc(Br)c5)c(=O)c4)cc23)ccn1 [Example 6, (S)-1-(1-(3-bromophenyl)-2-hydroxyethyl)-4-(3-(2-methyl-pyridin-4-yl)-1H-indazol-5-yl)pyridin-2(1H)-one]
6 | 1000 to 5000 nM | 10 to 50 nM | Cn1nccc1-c1n[nH]c2ccc(-c3ccn([C@H](CO)c4cccc(Cl)c4)c(=O)c3)cc12 [Example 7, (S)-1-(1-(3-chlorophenyl)-2-hydroxyethyl)-4-(3-(1-methyl-1H-pyrazol-5-yl)-1H-indazol-5-yl)pyridin-2(1H)-one]
7 | 500 to 1000 nM | < 10 nM | Cc1cc(-c2n[nH]c3ccc(-c4ccn(Cc5cc(F)cc(Br)c5)c(=O)c4)cc23)ccn1 [Example 8, 1-(3-bromo-5-fluorobenzyl)-4-(3-(2-methylpyridin-4-yl)-1H-indazol-5-yl)pyridin-2(1H)-one]
8 | 500 to 1000 nM | < 10 nM | Cc1cc(-c2n[nH]c3ccc(-c4ccn([C@H](CO)c5cccc(Cl)c5)c(=O)c4)nc23)ccn1 [Example 9, (S)-1-(1-(3-chlorophenyl)-2-hydroxyethyl)-4-(3-(2-methyl-pyridin-4-yl)-1H-pyrazolo[4,3-b]pyridin-5-yl)pyridin-2(1H)-one]
9 | > 5000 nM | 10 to 50 nM | CC(C)Oc1cc(-c2n[nH]c3ccc(-c4ccn(Cc5cc(F)cc(Br)c5)c(=O)c4)cc23)ccn1 [Example 10, 1-(3-bromo-5-fluorobenzyl)-4-(3-(2-isopropoxypyridin-4-yl)-1H-indazol-5-yl)pyridin-2(1H)-one]
10 | > 5000 nM | 10 to 50 nM | Nc1n[nH]c2ccc(-c3ccn([C@H](CO)c4cccc(Cl)c4)c(=O)c3)cc12 [Example 11, (S)-4-(3-amino-1H-indazol-5-yl)-1-(1-(3-chlorophenyl)-2-hydroxyethyl)pyridin-2(1H)-one]
11 | 1000 to 5000 nM | 10 to 50 nM | Cn1nccc1Nc1n[nH]c2ccc(-c3ccn([C@H](CO)c4cccc(Cl)c4)c(=O)c3)cc12 [Example 12, (S)-1-(1-(3-chlorophenyl)-2-hydroxyethyl)-4-(3-((1-methyl-1H-pyrazol-5-yl)amino)-1H-indazol-5-yl)pyridin-2(1H)-one]
12 | 500 to 1000 nM | < 10 nM | Cc1cc(-c2n[nH]c3ccc(-c4ccn([C@H](CO)c5cccc(Cl)c5)c(=O)c4)c(F)c23)ccn1 [Example 13, (S)-1-(1-(3-chlorophenyl)-2-hydroxyethyl)-4-(4-fluoro-3-(2-methylpyridin-4-yl)-1H-indazol-5-yl)pyridin-2(1H)-one]
13 | 1000 to 5000 nM | 10 to 50 nM | Cc1cc(-c2n[nH]c3cc(F)c(-c4ccn([C@H](CO)c5cccc(Cl)c5)c(=O)c4)cc23)ccn1 [Example 14, (S)-1-(1-(3-chlorophenyl)-2-hydroxyethyl)-4-(6-fluoro-3-(2-methylpyridin-4-yl)-1H-indazol-5-yl)pyridin-2(1H)-one]
14 | ≤ 500 nM | < 10 nM | Cc1cc(-c2n[nH]c3ccc(-c4ccn([C@H](CO)c5ccc(Cl)c(F)c5)c(=O)c4)cc23)ccn1 [Example 15, (S)-1-(1-(4-chloro-3-fluorophenyl)-2-hydroxyethyl)-4-(3-(2-methylpyridin-4-yl)-1H-indazol-5-yl)pyridin-2(1H)-one]
15 | 500 to 1000 nM | < 10 nM | Cc1nn(C)cc1-c1n[nH]c2ccc(-c3ccn([C@H](CO)c4cccc(Cl)c4)c(=O)c3)cc12 [Example 16, (S)-1-(1-(3-chlorophenyl)-2-hydroxyethyl)-4-(3-(1,3-dimethyl-1H-pyrazol-4-yl)-1H-indazol-5-yl)pyridin-2(1H)-one]
16 | 500 to 1000 nM | < 10 nM | CC(C)Oc1ccc(-c2n[nH]c3ccc(-c4ccn([C@H](CO)c5cccc(Cl)c5)c(=O)c4)cc23)cn1 [Example 17, (S)-1-(1-(3-chlorophenyl)-2-hydroxyethyl)-4-(3-(6-isopropoxypyridin-3-yl)-1H-indazol-5-yl)pyridin-2(1H)-one]
17 | ≤ 500 nM | < 10 nM | Cn1cc(-c2n[nH]c3ccc(-c4ccn([C@H](CO)c5cccc(Cl)c5)c(=O)c4)cc23)cn1 [Example 18, (S)-1-(1-(3-chlorophenyl)-2-hydroxyethyl)-4-(3-(1-methyl-1H-pyrazol-4-yl)-1H-indazol-5-yl)pyridin-2(1H)-one]
18 | 1000 to 5000 nM | < 10 nM | CC(C)Oc1cc(-c2n[nH]c3ccc(-c4ccn([C@H](CO)c5cccc(Cl)c5)c(=O)c4)cc23)ccn1 [Example 19, (S)-1-(1-(3-chlorophenyl)-2-hydroxyethyl)-4-(3-(2-isopropoxypyridin-4-yl)-1H-indazol-5-yl)pyridin-2(1H)-one]
19 | 1000 to 5000 nM | 10 to 50 nM | CC(C)(O)c1ccc(-c2n[nH]c3ccc(-c4ccn([C@H](CO)c5ccc(F)c(Cl)c5)c(=O)c4)cc23)cn1 [Example 20, (S)-1-(1-(3-chloro-4-fluorophenyl)-2-hydroxyethyl)-4-(3-(6-(2-hydroxypropan-2-yl)pyridin-3-yl)-1H-indazol-5-yl)pyridin-2(1H)-one]
20 | 1000 to 5000 nM | < 10 nM | CC(C)(O)c1cc(-c2n[nH]c3ccc(-c4ccn([C@H](CO)c5ccc(F)c(Cl)c5)c(=O)c4)cc23)ccn1 [Example 21]
21 | > 5000 nM | 10 to 50 nM | O=c1cc(-c2ccc3[nH]ncc3c2)ccn1[C@H](CO)c1cccc(Cl)c1 [Example 22, (S)-1-(1-(3-chlorophenyl)-2-hydroxyethyl)-4-(1H-indazol-5-yl)pyridin-2(1H)-one]
22 | 1000 to 5000 nM | 50 to 100 nM | CCc1n[nH]c2ccc(-c3ccn([C@H](CO)c4cccc(Cl)c4)c(=O)c3)cc12 [Example 23, (S)-1-(1-(3-chlorophenyl)-2-hydroxyethyl)-4-(3-ethyl-1H-indazol-5-yl)pyridin-2(1H)-one]
